Data: patent publication US4518790A, “15-Deoxy-16-hydroxy-16-vinyl and cyclopropyl substituted prostanoic acids and congeners” (American Cyanamid Company, priority 1980, dated 1985)

Key:
Assay type in all cases: in vivo, guinea pigs
[1] = test system: bronchospasms elicited by 5-hydroxytryptamine; assay: Bronchodilator activity (Konzett assay) against bronchospasm elicited by intravenous 5-hydroxytryptamine; settings: Cavia porcellus, guinea pig, three logarithmic cumulative doses, spasmogen 5-hydroxytryptamine i.v., read-out: Bronchodilator Activity (Konzett Assays) ED50, Spasmogenic Agent 5-hydroxytryptamine
Procedure: (§1) The compounds of this invention are useful as bronchodilators for the treatment of asthma and chronic bronchitis. Bronchodilator activity is determined in guinea pigs against bronchospasms elicited by intravenous injections of 5-hydroxytryptamine, histamine or acetylcholine by the Konzett procedure. [See J. Lulling, P. Lievens, F. El Sayed and J. Prignot, Arzneimittel-Forschung, 18, 955 (1968).]
(§2) In Table 16 which follows bronchodilator activity for representative compounds of this invention against one or more of three spasmogenic agents is expressed as an ED50 determined from the results obtained with three logarithmic cummulative intravenous doses. In this assay, these compounds of this invention provide an effect of longer duration than does natural 1-PGE1 or 1-PGE2.

[2] = test system: bronchospasms elicited by histamine; assay: Bronchodilator activity (Konzett assay) against bronchospasm elicited by intravenous histamine; settings: Cavia porcellus, guinea pig, three logarithmic cumulative doses, spasmogen histamine i.v., read-out: Bronchodilator Activity (Konzett Assays) ED50, Spasmogenic Agent histamine
Procedure: as §1, §2

[3] = test system: bronchospasms elicited by acetylcholine; assay: Bronchodilator activity (Konzett assay) against bronchospasm elicited by intravenous acetylcholine; settings: Cavia porcellus, guinea pig, three logarithmic cumulative doses, spasmogen acetylcholine i.v., read-out: Bronchodilator Activity (Konzett Assays) ED50, Spasmogenic Agent Acetylcholine
Procedure: as §1, §2

`C=CC(O)(C/C=C/[C@H]1[C@H](O)CC(=O)[C@@H]1C/C=C\CCCC(=O)OC)CCCC` (relative stereo) [methyl-9-oxo-11α, 16-dihydroxy-16-vinyl-5-cis, 13-trans prostadienoate] showed an ED50 [1] of 0.354 µg/kg, an ED50 [2] of 0.212 µg/kg and an ED50 [3] of 0.302 µg/kg.
`C=CC(O)(C/C=C/[C@H]1[C@H](O)CC(=O)[C@@H]1CCCCCCC(=O)O)CCCC` (relative stereo) [9-Oxo-11α,16-dihydroxy-16-vinyl-13-trans-prostenoic Acid] was tested, and the ED50 [1] was 1.86 µg/kg, the ED50 [2] was 1.11 µg/kg and the ED50 [3] was 760 µg/kg.
Molecule `C=CC(O)(C/C=C/[C@H]1[C@H](O)CC(=O)[C@@H]1C/C=C\CCCC(=O)O)CCCCC` (relative stereo) [9-oxo-11α,16-dihydroxy-16-vinyl-20-methyl-5-cis,13-trans-prostadienoic acid] has an ED50 [1] of 2.06 µg/kg, an ED50 [2] of 2.3 µg/kg and an ED50 [3] of 4.3 µg/kg.
In the case of `C=CC(O)(C/C=C/[C@H]1[C@H](O)CC(=O)[C@@H]1C/C=C\CCCC(=O)O)CCCC` (relative stereo) [9-oxo-11α,16-dihydroxy-16-vinyl-5-cis,13-trans-prostadienoic acid], the ED50 [1] was 0.252 µg/kg, the ED50 [2] was 0.162 µg/kg and the ED50 [3] was 0.78 µg/kg.
